We go through two compounds from patent US10987382B2, “Solanum dubium seeds and honey (extracted from bee hives in Acacia tree populated area) combination for treatment of asthma and bronchial asthma” (priority 2015, dated 2021).

The assay concerns Carrageenan induced paw oedema in Wister Rats. Briefly: Carrageenan induced paw oedema (anti-inflammatory activity). The assay is classed as in vivo, rat. The note with it: for % reduction in edema volume: 40 mg/kg i.p. How it is done: And anti-inflammatory study of aqueous crude extract of S. dubuim seeds, honey and S. dubuim seeds and honey (combination) on Wister Rats (42 rats), done to evaluate the anti inflammatory effects in animals using the method of Carrageenan induced paw oedema. (Nayak and Patel, 2010).
The first group serve as control and receive normal saline (1 ml/kg, orally), the second group served as standard and were administrated standard drug diclofenac sodium (100 mg/kg i.p.). The remaining groups were treated with, the third group received honey (2 ml/kg, orally), the fourth group are treated with the S. dubium seeds (2 ml/kg orally), the fifth group are treated with combination (2 ml/kg orally), the sixth group are treated with combination (4 ml/kg orally) and group seventh treated with standard drug hydrocortisone (40 mg/kg i.p.). A mark was made on both the hind paws just below the tibio-tarsal junction. After 30 min of the above treatment an inflammatory oedema was induced in the left hind paw by inject 0.1 ml solution of Carrageenan, in the planter tissue of all the animals. The paw volume was measured at first hour and followed every hour till the fifths hour after administration of carrageenan of each group. The difference between the initial and subsequence reading gave the actual edema volume. […] 100 mg/kg.
Finally the results of the anti-inflammatory activity of the fractions of methanolic extract (144) Wister Rats. […] Also the alcoholic extract of all fractions decreased rat paw edema at the end of 5th hour. The paw volume was measured initially at 0, 1, 2, 3, 4 and 5 h after Carrageenan injection using digital paw edema meter. Percent inhibition of inflammation was calculated using the formula: % Inhibition=100(1−vt/vc). Where (vc) represents edema volume in control and (vt) edema volume in group treated with sample.
(In general: Carrageenan injected into the paw causes an acute inflammation.)

Molecules are shown by their SMILES.

Turning to `C[C@]12CCC(=O)C=C1CC[C@@H]1[C@@H]2[C@@H](O)C[C@@]2(C)[C@H]1CC[C@]2(O)C(=O)CO` [hydrocortisone], the “% reduction in edema volume” value by setting is: (after 4 hour) 70.39%; (after 5 hour) 76.35%.
With `O=C(O)Cc1ccccc1Nc1c(Cl)cccc1Cl` [diclofenac sodium], where the note is “Rattus norvegicus, ip, 100 mg/kg i.p., after 4 hour, read-out: % inhibition of paw edema”, the inhibition (usually the drop in the measured response relative to a control, in per cent) at 100 mg/kg amounted to 74.3%.
